{"source": "ChEMBL document CHEMBL1201862", "about": "“PubChem BioAssay data set” (2004)", "key": {"[1]": {"molecular_target": "Glucose-6-phosphate 1-dehydrogenase (Homo sapiens, UniProt P11413)", "test": "inhibition of Homo sapiens G6PD, dose series – biochemical, fluorescence, selectivity assay for P. falciparum G6PD inhibitor project, dose response (AID 504792)", "type": "functional"}, "Genome polyprotein": {"molecular_target": "Genome polyprotein (dengue virus type 2, UniProt P29990)", "test": "flavivirus cap methylation enzyme inhibition – biochemical, confirmation dose response, primary screen (AID 588689)", "type": "functional"}, "[2]": {"molecular_target": "T1, Probable nicotinate-nucleotide adenylyltransferase (Staphylococcus aureus (strain N315), UniProt P65502)", "type": "functional, Staphylococcus aureus subsp. aureus N315"}, "[3]": {"molecular_target": "T1, Probable nicotinate-nucleotide adenylyltransferase", "type": "functional, Staphylococcus aureus subsp. aureus N315", "conditions": "read-out: IC50_Mean"}, "Mu-type opioid receptor": {"molecular_target": "Mu-type opioid receptor (Homo sapiens, UniProt P35372)", "type": "functional, cell-based"}, "[4]": {"molecular_target": "5-hydroxytryptamine receptor 2A (Mus musculus, UniProt P35363)", "type": "functional, cell-based"}, "Beta-galactosidase": {"molecular_target": "Beta-galactosidase (Escherichia coli, UniProt Q8VNN2)", "test": "Dose response counterscreen for EBI2 assay utilizing the enzyme, b-galactosidase.", "type": "functional"}, "Melanocortin receptor 4": {"molecular_target": "Melanocortin receptor 4 (Homo sapiens, UniProt P32245)", "test": "inhibitors of MC4R cAMP signaling – cell-based, TR-FRET, biased antagonists, dose response (AID 602298);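 further: antagonist potency against agonist-stimulated cAMP production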", "type": "functional"}, "[5]": {"test": "cAMP pathway inhibition in counterscreen cell line – TR-FRET cAMP detection, counter-screen for MC4R biased antagonist project, dose response (AID 602305);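 further: U2OS cells stimulated with forskolin near its EC80 as the cAMP inducer; potency is for inhibition of forskolin-stimulated cAMP signaling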", "type": "functional, cell-based"}, "[6]": {"molecular_target": "T2, Rac GTPase-activating protein 1 (Homo sapiens, UniProt Q9H0H5)", "T2 sequence (Q9H0H5 whole entry)": "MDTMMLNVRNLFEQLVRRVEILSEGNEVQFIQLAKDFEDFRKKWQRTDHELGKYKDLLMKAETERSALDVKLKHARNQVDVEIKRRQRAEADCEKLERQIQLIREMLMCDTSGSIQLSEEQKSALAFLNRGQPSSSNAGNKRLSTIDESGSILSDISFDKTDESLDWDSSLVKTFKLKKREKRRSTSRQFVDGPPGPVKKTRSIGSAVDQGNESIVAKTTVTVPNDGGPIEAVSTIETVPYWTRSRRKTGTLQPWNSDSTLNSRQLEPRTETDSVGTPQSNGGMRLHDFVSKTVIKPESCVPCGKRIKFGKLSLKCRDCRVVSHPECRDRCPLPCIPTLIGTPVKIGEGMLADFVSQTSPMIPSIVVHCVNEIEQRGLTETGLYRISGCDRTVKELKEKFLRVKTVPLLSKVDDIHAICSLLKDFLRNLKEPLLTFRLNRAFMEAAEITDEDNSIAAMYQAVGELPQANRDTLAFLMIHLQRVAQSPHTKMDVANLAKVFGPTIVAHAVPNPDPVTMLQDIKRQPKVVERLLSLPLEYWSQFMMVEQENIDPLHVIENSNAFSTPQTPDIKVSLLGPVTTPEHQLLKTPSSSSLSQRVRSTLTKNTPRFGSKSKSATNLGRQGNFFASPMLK", "test": "blockers of MgcRacGAP-driven Rac1 GTP hydrolysis – biochemical, ADP Hunter fluorescence, primary and confirmatory, confirmation (AID 624330)", "type": "functional"}, "Albumin": {"molecular_target": "Albumin (Bos taurus, UniProt P02769)", "test": "Counterscreen for inhibitors of T-cell receptor (TCR)-CD3 interaction: Fluorescence-based biochemical high throughput dose response assay to identify inhibitors of T-cell receptor (TCR)-CD3 interaction using a TAMRA-labeled BSA probe.", "type": "functional"}, "Major prion protein": {"molecular_target": "Major prion protein (Homo sapiens, UniProt P04156)", "type": "functional, cell-based"}, "[7]": {"test": "NIH-3T3 fibroblast cytotoxicity, dose response, cytotoxicity control, cell-based, fluorescence, Alamar Blue, secondary assay (AID 2327);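 further: NIH-3T3 mouse fibroblasts cultured with fluconazole at 8 µg/mL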", "type": "functional"}, "[8]": {"system": "Streptococcus sp. 'group A'", "test": "Streptococcus pyogenes SK(-)GAS viability under kanamycin – luminescence, BacTiterGlo, confirmation, counter-screen for streptokinase expression inhibitor project, dose response (AID 1900)", "type": "functional, organism-based"}, "[9]": {"test": "fluconazole-exposed Candida albicans growth modulators – fluorescence, retest, confirmation (AID 2467)", "type": "functional, cell-based"}, "[10]": {"molecular_target": "T3, Serine/threonine-protein phosphatase (Candida dubliniensis (strain CD36 / CBS 7987 / NCPF 3949 / NRRLY-17841) (Yeast), UniProt B9W6M3)", "T3 sequence (B9W6M3 whole entry)": "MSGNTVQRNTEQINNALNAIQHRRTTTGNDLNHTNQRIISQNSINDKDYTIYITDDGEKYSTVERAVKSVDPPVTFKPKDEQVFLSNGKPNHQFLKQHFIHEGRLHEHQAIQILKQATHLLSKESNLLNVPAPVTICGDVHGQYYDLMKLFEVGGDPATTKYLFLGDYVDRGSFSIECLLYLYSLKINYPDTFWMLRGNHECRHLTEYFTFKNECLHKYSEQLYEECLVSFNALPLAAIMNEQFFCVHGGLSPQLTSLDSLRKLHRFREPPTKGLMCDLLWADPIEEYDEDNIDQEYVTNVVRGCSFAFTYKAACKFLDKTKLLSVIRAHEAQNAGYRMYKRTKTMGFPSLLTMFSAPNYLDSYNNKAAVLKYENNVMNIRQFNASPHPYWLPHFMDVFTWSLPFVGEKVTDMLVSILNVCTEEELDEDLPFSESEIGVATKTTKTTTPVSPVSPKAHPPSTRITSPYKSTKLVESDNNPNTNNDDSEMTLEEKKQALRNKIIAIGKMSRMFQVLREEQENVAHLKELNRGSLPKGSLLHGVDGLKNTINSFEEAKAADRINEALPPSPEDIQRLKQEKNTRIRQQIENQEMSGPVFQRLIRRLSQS", "test": "blockers of CaCl2-induced CDRE-lacZ signaling – S. cerevisiae, luminescence, secondary, dose response (AID 2388);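 further: yeast reporter cells carrying a calcineurin-responsive lacZ construct stimulated with calcium chloride; luminescent beta-galactosidase reporter signal in whole cells rather than isolated phosphatase activity; potency for inhibition where a drop in reporter signal means calcineurin blockade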", "type": "functional, cell-based"}, "Streptococcus": {"system": "Streptococcus", "test": "GAS UMAA2166 growth inhibition – luminescence, BacTiterGlo, counter-screen for streptokinase expression inhibitor project, dose response (AID 1915);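 further: potency for reduction of bacterial viability or growth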", "type": "functional, organism-based"}, "Vero": {"system": "Vero", "test": "cells", "type": "functional", "conditions": "Chlorocebus sabaeus"}, "[11]": {"molecular_target": "ATP-dependent molecular chaperone HSP82 (Candida albicans (strain WO-1) (Yeast), UniProt C4YTQ8)", "test": "steroid-induced GRE reporter decrease in yeast – S. cerevisiae, luminescence, Hsp90 inhibitor project, dose response (AID 2400);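 further: beta-galactosidase luminescence from glucocorticoid response element reporter as proxy for Hsp90 function; inhibitor potency where signal loss means Hsp90 inhibition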", "type": "functional, cell-based"}}, "note": "The source made the active and inactive calls.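 Wherever IC50 Mean is given: confirmatory dose-response retesting of NadD inhibitor hits first found in an ultra-high-throughput screen.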", "data": [{"smiles": "[O-][S+](c1ccccc1O)[S+]([O-])c1ccccc1O", "note": "(stereo not drawn)", "values": [{"measurement": "IC50", "setting": "[1]", "value": "54.1 µM (inactive)"}, {"measurement": "IC50", "setting": "Genome polyprotein", "value": "68 µM (active)"}, {"measurement": "IC50", "setting": "[2]", "value": "3.33 µM (active)"}, {"measurement": "IC50", "setting": "[3]", "value": "9.15 µM (active)"}]}, {"smiles": "NC1CCc2cc(O)c(O)cc2C1", "note": "(stereo not drawn)", "values": [{"measurement": "IC50", "setting": "[1]", "value": "> 80 µM (inactive)"}, {"measurement": "EC50", "setting": "Mu-type opioid receptor", "value": "92.5 µM (inactive)"}, {"measurement": "EC50", "setting": "[4]", "value": "0.0131 µM (active)"}]}, {"smiles": "CNCCc1c[nH]c2ccc(O)cc12", "values": [{"measurement": "EC50", "setting": "Mu-type opioid receptor", "value": "92.4 µM (inactive)"}, {"measurement": "EC50", "setting": "[4]", "value": "1.73 µM (active)"}]}, {"smiles": "CN(c1ccc(C(=O)N2CCN(Cc3ccccc3)CC2)cc1)S(=O)(=O)c1ccc(Cl)cc1", "values": [{"measurement": "EC50", "setting": "Mu-type opioid receptor", "value": "92.4 µM (inactive)"}, {"measurement": "EC50", "setting": "[4]", "value": "2.82 µM (active)"}]}, {"smiles": "COCCN1C(=O)c2cc(C(=O)Nc3ccc(C)c(F)c3)ccc2C1Nc1ccc(C)c(F)c1", "note": "(stereo not drawn)", "values": [{"measurement": "IC50", "setting": "Beta-galactosidase", "value": "> 80 µM (inactive)"}]}, {"smiles": "COC(=O)C1CCN(CCCOc2ccc(CN3CCN(c4ccc([N+](=O)[O-])cc4)CC3)cc2)CC1", "values": [{"measurement": "EC50", "setting": "Mu-type opioid receptor", "value": "92.6 µM (inactive)"}, {"measurement": "EC50", "setting": "[4]", "value": "0.57 µM (active)"}]}, {"smiles": "CC1(C)CC(=O)C(C(C2=C(O)CC(C)(C)CC2=O)c2cccs2)C(=O)C1", "note": "(stereo not drawn)", "values": [{"measurement": "IC50", "setting": "Genome polyprotein", "value": "46.3 µM (active)"}, {"measurement": "IC50", "setting": "Melanocortin receptor 4", "value": "29.9 µM (inactive)"}, {"measurement": "IC50", "setting": "[5]", "value": "> 64.6 µM (inactive)"}, {"measurement": "IC50", "setting": "[6]", "value": "73 µM (active)"}]}, {"smiles": "COc1ccc(N2CCN(C(=O)c3ccc4[nH]c(C)c(C)c4c3)CC2)cc1", "values": [{"measurement": "IC50", "setting": "Beta-galactosidase", "value": "> 80 µM (inactive)"}]}, {"smiles": "CC(=O)c1ccc(NC(=O)CN2C(=O)/C(=C/C(C)=C/c3ccccc3)SC2=S)cc1", "values": [{"measurement": "IC50", "setting": "Albumin", "value": "> 94.1 µM (inactive)"}]}, {"smiles": "C=CCOc1ccc(C(=O)/C=C2/C(=O)Nc3ccccc32)cc1", "values": [{"measurement": "IC50", "setting": "Beta-galactosidase", "value": "> 80 µM (inactive)"}]}, {"smiles": "COc1ccc(N2CCN(C(=O)c3cc(=O)c4cc(C)ccc4o3)CC2)cc1", "values": [{"measurement": "IC50", "setting": "Beta-galactosidase", "value": "> 80 µM (inactive)"}]}, {"smiles": "CCc1nc(SCC(=O)NNC(=O)c2ccc(OC)cc2)c2ccccc2n1", "values": [{"measurement": "IC50", "setting": "Major prion protein", "value": "1.72 µM (active)"}, {"measurement": "IC50", "setting": "cells", "value": "> 138 µM (inactive)"}]}, {"smiles": "Cc1cccc2sc(NNC(=O)c3cc(-c4cccs4)nc4ccccc34)nc12", "values": [{"measurement": "EC50", "setting": "[7]", "value": "10.7 µM (inconclusive)"}, {"measurement": "EC50", "setting": "[8]", "value": "0.889 µM (active)"}, {"measurement": "EC50", "setting": "[9]", "value": "0.507 µM (active)"}, {"measurement": "EC50", "setting": "[10]", "value": "> 180 µM (inactive)"}, {"measurement": "EC50", "setting": "Streptococcus", "value": "2.14 µM (active)"}, {"measurement": "CC50", "setting": "Vero", "value": "11.5 µM (active)"}, {"measurement": "EC50", "setting": "[11]", "value": "16.2 µM (active)"}, {"measurement": "IC50", "setting": "[2]", "value": "13.3 µM (active)"}, {"measurement": "IC50", "setting": "[3]", "value": "26.7 µM (active)"}]}]}
